Results as given in US8865706B2, “Heteroaryl-substituted hexahydropyrano[3,4-d][1,3]thiazin-2-amine compounds” (Pfizer Inc., priority 2013, dated 2014).

Tests used:
[1] = system: sAPPβ levels in H4 human neuroglioma cells over-expressing the wild-type human APP695; test: Whole Cell Assay (In Vitro sAPPb Assay); assay type: cell-based; conditions: 18 hours treatment, average of 2 determinations, values marked b: geometric mean of 3-9 determinations
Protocol: Whole Cell Assay (In Vitro sAPPb Assay):
H4 human neuroglioma cells over-expressing the wild-type human APP695 are treated for 18 hours with compound in a final concentration 1% DMSO. sAPPβ levels are measured using TMB-ELISA with capture APP N-terminal antibody (Affinity BioReagents, OMA1-03132), wild-type sAPPβ specific reporter p192 (Elan), and tertiary anti rabbit-HRP (GE Healthcare).

[2] = biological target: BACE1 enzyme (Homo sapiens (Human), UniProt P56817); test: BACE1 Cell-Free Assay (fluorescence polarization, cleavage of synthetic APP substrate); assay type: biochemical; conditions: average of 2 determinations; values marked b: geometric mean of 3-9 determinations
From the text: This assay measures the inhibition of the beta-secretase enzyme as it cleaves a non-native peptide.
A synthetic APP substrate that can be cleaved by beta-secretase having N-terminal biotin and made fluorescent by the covalent attachment of Oregon Green at the Cys residue is used to assay beta-secretase activity in the presence or absence of the inhibitory compounds. […] The BACE1 enzyme is affinity purified material from conditioned media of CHO-K1 cells that have been transfected with a soluble BACE construct (BACE1deltaTM96His). Compounds are incubated in a ½ log dose response curve from a top concentration of 100 μM with BACE1 enzyme and the biotinylated fluorescent peptide in 384-well black plates (Thermo Scientific #4318). BACE1 is at a final concentration of 0.1 nM with a final concentration of peptide substrate of 150 nM in a reaction volume of 30 μL assay buffer [100 mM sodium acetate, pH 4.5 (brought to pH with acetic acid), and 0.001% Tween-20]. Plates are covered and incubated for 3 hours at 37° C. The reaction is stopped with the addition of 30 μL of 1.5 μM Streptavidin (Pierce, #21125). After a 10 minute incubation at room temperature, plates are read on a PerkinElmer EnVision for fluorescence polarization (Ex485 nm/Em530 nm). The activity of the beta-secretase enzyme is detected by changes in the fluorescence polarization that occur when the substrate is cleaved by the enzyme.

Chain of BACE1 enzyme (P56817 46-457): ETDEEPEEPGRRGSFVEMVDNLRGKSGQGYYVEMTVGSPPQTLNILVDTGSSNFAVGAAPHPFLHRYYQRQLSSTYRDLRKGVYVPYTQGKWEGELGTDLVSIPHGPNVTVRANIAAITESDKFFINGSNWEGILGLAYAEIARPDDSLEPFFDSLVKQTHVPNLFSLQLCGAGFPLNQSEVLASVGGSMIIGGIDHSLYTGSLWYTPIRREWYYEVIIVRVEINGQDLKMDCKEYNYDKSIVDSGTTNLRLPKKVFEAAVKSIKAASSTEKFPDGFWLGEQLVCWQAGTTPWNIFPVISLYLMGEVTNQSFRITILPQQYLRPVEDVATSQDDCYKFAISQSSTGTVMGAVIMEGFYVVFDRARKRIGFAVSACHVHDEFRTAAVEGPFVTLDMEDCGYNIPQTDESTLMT

Compound	IC50 ([1]; Homo sapiens) [µM]	IC50 [2] [µM]	IC50 [1] [µM]
Cc1ccc([C@H]2C[C@H]3CSC(N)=N[C@@]3(c3ccc(F)cc3F)CO2)cn1 (relative stereo) [Example 7, rel-(4aR,6R,8aS)-8a-(2,4-Difluorophenyl)-6-(6-methylpyridin-3-yl)-4,4a,5,6,8,8a-hexahydropyrano[3,4-d][1,3]thiazin-2-amine]	0.0067		
Cn1nc([C@H]2C[C@H]3CSC(N)=N[C@@]3(c3ccc(F)cc3F)CO2)cc1F [Example 1, (4aR,6R,8aS)-8a-(2,4-difluorophenyl)-6-(5-fluoro-1-methyl-1H-pyrazol-3-yl)-4,4a,5,6,8,8a-hexahydropyrano[3,4-d][1,3]thiazin-2-amine]	0.00378	0.0837	
NC1=N[C@@]2(c3ccc(F)cc3F)CO[C@@H](c3ccc(F)cn3)C[C@H]2CS1 [Example 2, (4aR,6R,8aS)-8a-(2,4-Difluorophenyl)-6-(5-fluoropyridin-2-yl)-4,4a,5,6,8,8a-hexahydropyrano[3,4-d][1,3]thiazin-2-amine]	0.0182	0.233	
Cn1cc([C@H]2C[C@H]3CSC(N)=N[C@@]3(c3ccc(F)cc3F)CO2)ccc1=O [Example 3, 5-[(4aR,6R,8aS)-2-Amino-8a-(2,4-difluorophenyl)-4,4a,5,6,8,8a-hexahydropyrano[3,4-d][1,3]thiazin-6-yl]-1-methylpyridin-2(1H)-one]	0.00743	0.119	
NC1=N[C@@]2(c3ccc(F)cc3F)CO[C@@H](c3cn4cccnc4n3)C[C@H]2CS1 [Example 4, (4aR,6R,8aS)-8a-(2,4-Difluorophenyl)-6-(imidazo[1,2-a]pyrimidin-2-yl)-4,4a,5,6,8,8a-hexahydropyrano[3,4-d][1,3]thiazin-2-amine]	0.0662	1.84	
NC1=N[C@@]2(c3ccc(F)cc3F)CO[C@@H](c3cnn(CC(F)(F)F)c3)C[C@H]2CS1 [Example 5, (4aR,6R,8aS)-8a-(2,4-Difluorophenyl)-6-[1-(2,2,2-trifluoroethyl)-1H-pyrazol-4-yl]-4,4a,5,6,8,8a-hexahydropyrano[3,4-d][1,3]thiazin-2-amine]	0.0133	0.0728	
Cc1nc([C@H]2C[C@H]3CSC(N)=N[C@@]3(c3ccc(F)cc3F)CO2)no1 [Example 6, (4aR,6R,8aS)-8a-(2,4-Difluorophenyl)-6-(5-methyl-1,2,4-oxadiazol-3-yl)-4,4a,5,6,8,8a-hexahydropyrano[3,4-d][1,3]thiazin-2-amine]	0.0415	0.341	
Cn1cc(F)c([C@H]2C[C@H]3CSC(N)=N[C@@]3(c3ccc(F)cc3F)CO2)n1 [Example 8, (4aR,6R,8aS)-8a-(2,4-difluorophenyl)-6-(4-fluoro-1-methyl-1H-pyrazol-3-yl)-4,4a,5,6,8,8a-hexahydropyrano[3,4-d][1,3]thiazin-2-amine]	0.0264	0.162	
Cc1cc([C@H]2C[C@H]3[C@@H](C)SC(N)=N[C@@]3(c3ccc(F)cc3F)CO2)on1 [Example 9, (4R,4aR,6R,8aS)-8a-(2,4-difluorophenyl)-4-methyl-6-(3-methyl-1,2-oxazol-5-yl)-4,4a,5,6,8,8a-hexahydropyrano[3,4-d][1,3]thiazin-2-amine]	0.00528	0.0759	
Cn1cc([C@H]2C[C@H]3[C@@H](CF)SC(N)=N[C@@]3(c3ccc(F)cc3F)CO2)cn1 [Example 22, (4S,4aR,6R,8aS)-8a-(2,4-Difluorophenyl)-4-(fluoromethyl)-6-(1-methyl-1H-pyrazol-4-yl)-4,4a,5,6,8,8a-hexahydropyrano[3,4-d][1,3]thiazin-2-amine]	0.00628		
NC1=N[C@@]2(c3ccc(F)cc3F)CO[C@@H](c3cncc(F)c3)C[C@H]2CS1 [Example 29, (4aR,6R,8aS)-8a-(2,4-difluorophenyl)-6-(5-fluoropyridin-3-yl)-4,4a,5,6,8,8a-hexahydropyrano[3,4-d][1,3]thiazin-2-amine]	0.0027		
(4aR,6R,8aS)-8a-(2,4-Difluorophenyl)-6-[1-(^2H3)methyl-1H-pyrazol-4-yl]-4,4a,5,6,8,8a-hexahydropyrano[3,4-d][1,3]thiazin-2-amine [Example 15]			0.00437
